pKi: −log10 of the molar value. Active and inactive are the calls of the source. The calls are words filed in the database; no cut-off is given here.
target: T1, PROBABLE TRANSMEMBRANE CARBONIC ANHYDRASE (CARBONATE DEHYDRATASE) (CARBONIC DEHYDRATASE) (Mycobacterium tuberculosis, UniProt P96878)
T1 sequence (P96878 whole entry): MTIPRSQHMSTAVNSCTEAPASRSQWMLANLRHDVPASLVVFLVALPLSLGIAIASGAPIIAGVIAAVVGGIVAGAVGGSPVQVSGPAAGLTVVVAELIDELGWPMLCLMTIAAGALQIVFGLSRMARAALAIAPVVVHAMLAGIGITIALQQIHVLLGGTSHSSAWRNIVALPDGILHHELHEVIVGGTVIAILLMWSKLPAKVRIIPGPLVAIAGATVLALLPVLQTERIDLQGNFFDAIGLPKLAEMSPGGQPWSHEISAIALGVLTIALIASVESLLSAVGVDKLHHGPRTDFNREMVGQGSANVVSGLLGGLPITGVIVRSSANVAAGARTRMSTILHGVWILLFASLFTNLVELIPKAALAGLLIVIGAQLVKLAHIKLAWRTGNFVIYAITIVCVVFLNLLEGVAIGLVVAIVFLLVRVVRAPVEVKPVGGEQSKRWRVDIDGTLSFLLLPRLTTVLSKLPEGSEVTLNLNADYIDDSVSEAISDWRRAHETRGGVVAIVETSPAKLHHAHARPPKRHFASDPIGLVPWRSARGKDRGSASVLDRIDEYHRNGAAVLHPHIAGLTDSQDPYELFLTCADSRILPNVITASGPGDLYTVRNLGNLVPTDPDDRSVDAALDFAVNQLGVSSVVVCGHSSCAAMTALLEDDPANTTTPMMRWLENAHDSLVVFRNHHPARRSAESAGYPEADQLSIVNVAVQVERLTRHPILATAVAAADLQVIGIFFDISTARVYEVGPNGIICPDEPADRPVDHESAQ
Description: Inhibition of Mycobacterium tuberculosis recombinant carbonic anhydrase Rv3273 pre-incubated for 15 mins by stopped-flow CO2 hydration method

Compared with `COc1ccc2c(c1)SCc1cnn(-c3ccc(S(N)(=O)=O)cc3)c1-2`, `NS(=O)(=O)c1ccc(-n2ncc3c2-c2ccc(Cl)cc2SC3)cc1` is 0.38 log units higher in pKi: 6.12 for the first, 6.50 for the second. The second binds more tightly here.

`Cc1ccc2c(n1)SCc1cnn(-c3ccc(S(N)(=O)=O)cc3)c1-2` and `NS(=O)(=O)c1ccc(-n2ncc3c2-c2cccnc2SC3)cc1` are within 0.2 log units of each other in pKi: 6.62 for the first, 6.54 for the second.

Compared with `Cc1ccc(-c2cc(C(F)(F)F)nn2-c2ccc(S(N)(=O)=O)cc2)cc1` [CELECOXIB], `NS(=O)(=O)c1ccc(-n2ncc3c2-c2ccc(C(F)(F)F)cc2SC3)cc1` is 1.51 log units higher in pKi: 5.11 for the first, 6.62 for the second. The second binds more tightly here.

target: T2, Carbonic anhydrase 2 (Mycobacterium tuberculosis, UniProt P9WPJ9)
T2 sequence (P9WPJ9 whole entry): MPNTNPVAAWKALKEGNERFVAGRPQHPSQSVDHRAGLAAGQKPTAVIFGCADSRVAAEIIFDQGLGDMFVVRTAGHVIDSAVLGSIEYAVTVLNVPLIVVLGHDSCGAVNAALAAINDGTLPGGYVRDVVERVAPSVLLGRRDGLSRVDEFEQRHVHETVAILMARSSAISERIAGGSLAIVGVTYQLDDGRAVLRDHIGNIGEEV
Description: Inhibition of Mycobacterium tuberculosis recombinant carbonic anhydrase Rv3588c pre-incubated for 15 mins by stopped-flow CO2 hydration method

Compared with `COc1ccc2c(c1)SCc1cnn(-c3ccc(S(N)(=O)=O)cc3)c1-2`, `NS(=O)(=O)c1ccc(-n2ncc3c2-c2ccc(Cl)cc2SC3)cc1` is 0.42 log units higher in pKi: 6.21 for the first, 6.63 for the second.

Going from `Cc1ccc2c(n1)SCc1cnn(-c3ccc(S(N)(=O)=O)cc3)c1-2` to `NS(=O)(=O)c1ccc(-n2ncc3c2-c2cccnc2SC3)cc1`, the pKi falls from 6.84 to 6.56 (0.28 log units).

Molecule `NS(=O)(=O)c1ccc(-n2ncc3c2-c2ccc(C(F)(F)F)cc2SC3)cc1` has a pKi of 6.45.

target: Carbonic anhydrase 9 (Homo sapiens, UniProt Q16790)
Description: Inhibition of human recombinant CA9 catalytic domain pre-incubated for 15 mins by stopped-flow CO2 hydration method

`COc1ccc2c(c1)SCc1cnn(-c3ccc(S(N)(=O)=O)cc3)c1-2` and `NS(=O)(=O)c1ccc(-n2ncc3c2-c2ccc(Cl)cc2SC3)cc1` are within 0.2 log units of each other in pKi: 5.66 for the first, 5.73 for the second.

`NS(=O)(=O)c1ccc(-n2ncc3c2-c2ccc(C(F)(F)F)cc2SC3)cc1` and `NS(=O)(=O)c1ccc(-n2ncc3c2-c2cccnc2SC3)cc1` are within 0.2 log units of each other in pKi: 5.59 for the first, 5.63 for the second.

target: T3, Beta-carbonic anhydrase 1 (Mycobacterium tuberculosis, UniProt P9WPJ7)
T3 sequence (P9WPJ7 whole entry): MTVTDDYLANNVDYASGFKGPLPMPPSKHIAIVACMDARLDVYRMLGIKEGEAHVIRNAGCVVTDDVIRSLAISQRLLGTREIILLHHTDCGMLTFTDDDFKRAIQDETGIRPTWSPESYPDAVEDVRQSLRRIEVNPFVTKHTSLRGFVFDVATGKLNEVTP
Description: Inhibition of Mycobacterium tuberculosis recombinant carbonic anhydrase Rv1284 pre-incubated for 15 mins by stopped-flow CO2 hydration method

Compared with `COc1ccc2c(c1)SCc1cnn(-c3ccc(S(N)(=O)=O)cc3)c1-2`, `NS(=O)(=O)c1ccc(-n2ncc3c2-c2ccc(Cl)cc2SC3)cc1` is 0.33 log units higher in pKi: 6.06 for the first, 6.39 for the second. The second binds more tightly here.

`Cc1ccc2c(n1)SCc1cnn(-c3ccc(S(N)(=O)=O)cc3)c1-2` and `NS(=O)(=O)c1ccc(-n2ncc3c2-c2cccnc2SC3)cc1` are within 0.2 log units of each other in pKi: 6.94 for the first, 6.87 for the second.

With `NS(=O)(=O)c1ccc(-n2ncc3c2-c2ccc(C(F)(F)F)cc2SC3)cc1` the pKi was 6.21.

target: Carbonic anhydrase 3 (Homo sapiens, UniProt P07451)
Sequence (P07451 whole entry): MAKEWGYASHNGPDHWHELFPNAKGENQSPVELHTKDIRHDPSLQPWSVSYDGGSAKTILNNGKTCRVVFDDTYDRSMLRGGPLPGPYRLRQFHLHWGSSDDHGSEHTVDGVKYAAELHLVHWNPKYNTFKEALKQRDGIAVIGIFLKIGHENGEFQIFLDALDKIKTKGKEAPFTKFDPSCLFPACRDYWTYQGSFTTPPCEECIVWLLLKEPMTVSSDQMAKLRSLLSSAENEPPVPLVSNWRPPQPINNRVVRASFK
Description: Inhibition of human recombinant full length CA3 pre-incubated for 15 mins by stopped-flow CO2 hydration method

Molecule `Cc1ccc(-c2cc(C(F)(F)F)nn2-c2ccc(S(N)(=O)=O)cc2)cc1` [CELECOXIB] has a pKi of 5.13.

target: T4, Prostaglandin G/H synthase 2 (Ovis aries) (UniProt P79208); assay: Inhibition of ovine COX2 at 100 uM incubated for 5 mins by colorimetric assay
T4 sequence (whole entry): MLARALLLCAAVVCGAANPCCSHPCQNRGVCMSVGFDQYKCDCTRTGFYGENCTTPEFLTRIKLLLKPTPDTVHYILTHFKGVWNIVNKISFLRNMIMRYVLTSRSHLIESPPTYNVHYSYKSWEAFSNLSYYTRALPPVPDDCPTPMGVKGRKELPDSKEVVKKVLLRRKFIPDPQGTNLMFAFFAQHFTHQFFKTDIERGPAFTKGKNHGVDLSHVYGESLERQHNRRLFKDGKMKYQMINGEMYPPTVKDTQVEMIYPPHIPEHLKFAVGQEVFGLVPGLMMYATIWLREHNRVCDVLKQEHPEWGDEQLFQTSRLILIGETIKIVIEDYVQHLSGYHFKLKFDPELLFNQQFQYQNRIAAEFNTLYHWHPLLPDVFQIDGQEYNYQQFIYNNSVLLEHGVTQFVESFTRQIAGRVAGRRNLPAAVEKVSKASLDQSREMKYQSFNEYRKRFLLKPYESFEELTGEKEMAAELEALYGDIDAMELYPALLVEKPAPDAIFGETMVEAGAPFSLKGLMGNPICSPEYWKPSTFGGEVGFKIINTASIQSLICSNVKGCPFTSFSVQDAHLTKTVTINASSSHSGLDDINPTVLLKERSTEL

`COc1ccc2c(c1)SCc1cnn(-c3ccc(S(N)(=O)=O)cc3)c1-2` was tested, and the inhibition was “inactive”.
With `Cc1ccc2c(n1)SCc1cnn(-c3ccc(S(N)(=O)=O)cc3)c1-2` the inhibition was “inactive”.
`NS(=O)(=O)c1ccc(-n2ncc3c2-c2ccc(Cl)cc2SC3)cc1` was tested, and the inhibition was “inactive”.
With `NS(=O)(=O)c1ccc(-n2ncc3c2-c2ccc(C(F)(F)F)cc2SC3)cc1` the inhibition was “inactive”.
With `NS(=O)(=O)c1ccc(-n2ncc3c2-c2cccnc2SC3)cc1` the inhibition was “inactive”.

From ChEMBL document CHEMBL2177016 (J Med Chem, 2012)
